Earlier results, collected in article PMC11767697, “Radiocobalt-Labeling of a Polypyridylamine Chelate Conjugated to GE11 for EGFR-Targeted Theranostics” (Molecules, 2025).

Conditions: Co(II) complex
Experimental: The promising therapeutic properties of the AEE, ^58mCo (T1/2 = 9.1 h), have been theoretically predicted and confirmed by in vitro and in vivo experiments using PSMA and octreotide conjugates of DOTA [[2],[11 ...

| Compound | stability (binding) constant Log(β) (comparable conditions) | stability constant Log(β) |
| --- | --- | --- |
| O=C([O-])CN(CCN(CC(=O)[O-])CC(=O)[O-])CC(=O)[O-].[Co+2] [[Co^II(EDTA)]^2-] | 16.1 | – |
| [Co+2].c1ccc(CN(CCN(Cc2ccccn2)Cc2ccccn2)Cc2ccccn2)nc1 [[Co^II(TPEN)]^2+] | – | 16.6 |
